# Measurements reported in paper PMC11784564 (RSC Chemical Biology, 2025).
# T1: PfSir2A (Plasmodium falciparum, UniProt Q8IE47)
# T1 sequence (Q8IE47 1-273): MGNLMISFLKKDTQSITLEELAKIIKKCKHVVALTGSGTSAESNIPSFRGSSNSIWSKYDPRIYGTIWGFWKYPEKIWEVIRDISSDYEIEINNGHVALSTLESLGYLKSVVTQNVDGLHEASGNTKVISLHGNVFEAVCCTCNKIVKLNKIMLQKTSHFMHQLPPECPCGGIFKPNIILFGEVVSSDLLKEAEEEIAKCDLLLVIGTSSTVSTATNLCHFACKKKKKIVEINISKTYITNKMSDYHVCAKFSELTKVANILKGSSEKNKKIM
# T2: PfSir2A (Plasmodium falciparum) (UniProt Q8IE47)
# T2 sequence: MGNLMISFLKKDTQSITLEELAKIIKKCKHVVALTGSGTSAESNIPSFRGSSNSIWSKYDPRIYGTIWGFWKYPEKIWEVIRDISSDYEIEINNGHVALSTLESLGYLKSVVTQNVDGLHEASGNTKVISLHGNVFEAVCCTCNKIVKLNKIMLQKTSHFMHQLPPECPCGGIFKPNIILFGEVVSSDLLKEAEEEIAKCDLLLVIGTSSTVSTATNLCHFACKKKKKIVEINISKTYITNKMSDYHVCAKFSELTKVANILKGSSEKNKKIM
# T3: PfSir2A (Plasmodium falciparum, UniProt Q8IE47 1-273)
# T3 sequence: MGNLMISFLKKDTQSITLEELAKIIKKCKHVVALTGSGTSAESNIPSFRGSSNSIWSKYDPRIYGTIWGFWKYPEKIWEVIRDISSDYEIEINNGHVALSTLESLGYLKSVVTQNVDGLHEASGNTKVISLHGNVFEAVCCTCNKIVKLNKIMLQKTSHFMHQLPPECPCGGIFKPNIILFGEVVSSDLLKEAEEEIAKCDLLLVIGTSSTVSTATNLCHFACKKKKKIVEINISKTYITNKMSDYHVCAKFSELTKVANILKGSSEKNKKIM
# Assays:
# [1] = biological target: T1, PfSir2A; experiment: HPLC demyristoylation assay with H3K9Myr peptide; assay type: biochemical
# [2] = biological target: T1, PfSir2A; experiment: HPLC deacetylation assay with H3K9Ac peptide; assay type: biochemical
# [3] = biological target: T2, PfSir2A (Plasmodium falciparum); experiment: EMSA; settings: room temperature
# [4] = biological target: T3, PfSir2A; experiment: MST
molecule,measurement,setting,value
CCCCCCCCCCCCCC(=O)O [myristic acid],IC50,[1],107 ± 15 µM
NC(=O)c1ccc[n+]([C@@H]2O[C@H](CO)[C@@H](O)[C@H]2O)c1 [nicotinamide riboside],IC50,[2],155 ± 14.9 µM
c1cncc(-c2c[nH]nn2)c1 [3-TYP],IC50,[2],~59.6 µM
H3K9Ac dNuc (601-positioned nucleosome),Kd,[3]; H3K9Ac on histone H3; […]) / MST buffer,1.4 µM
"601 nucleosome assembly sequence DNA, 147 bp",Kd,[3]; […]) / MST buffer,4 µM
GAAGTCGGGGATGGCAGAGGCAGTGCT (ssDNA) [ssDNA (MST)],Kd,[4],0.138 µM
